Results from patent US20070274947A1, “Antisense Oligonucleotides Directed to Ribonucleotide Reductase R1 and Uses Thereof in the Treatment of Cancer” (priority 2003, published 2007).
Entries after “also recorded” stand apart in the source; their conditions may differ.

Columns and labels:
[1] = system: C8161 human melanoma cells; assay: Experimental metastasis of C8161 cells treated ex vivo (lung nodules, CD-1 athymic nude mice); assay type: in vivo; conditions: cells treated 4 hr with 0.2 μM plus Lipofectin before tail vein injection; 4 weeks; vs lipofectin alone
Method: A. Experimental metastasis of C8161 human melanoma cells treated with SEQ ID NO:1 was estimated as follows. Aliquots of C8161 cell suspension were seeded into 100 mm tissue culture dishes at a density of 2×10^6 and incubated overnight at 37° C. in α-MEM medium supplemented with 10% FBS. Following a wash with 10 ml of PBS, cells were treated for 4 hr with 0.2 μM of SEQ ID NO:1 in the presence of a cationic lipid (Lipofectin reagent, final concentration, 10 μg/ml, Gibco BRL) or with lipofectin alone (CONTROL) as a control. SEQ ID NO:1 was removed by washing the cells once with PBS. Cells were then collected by trypsinization and centrifugation. Approximately 1×10^5 cells suspended in 0.2 ml of PBS were injected into the tail veins of 6-8 week-old CD-1 athymic female nude mice. Estimates of the number of lung tumors were made 4 weeks later by counting metastatic foci formed on the excised lung surface, see FIG. 12A. Bars represent mean number of tumor nodules in lungs obtained from 7-9 animals per experimental group.

[2] = system: PC-3 human prostatic cancer cells; assay: PC-3 prostate tumor growth in SCID mice; assay type: in vivo; conditions: 10 mg/kg i.v. every other day, 36 days, vs saline
Method: PC-3 human prostatic cancer cells (1×10^7 cells in 100 μl of PBS) were subcutaneously injected into the right flank of 6-7 week old male SCID mice. After the tumor size reached an approximate volume of 50 mm^3, 14 days post tumor cell injection, SEQ ID NO:1 was administered by bolus infusion into the tail vein every other day at 10 mg/kg. Control animals received saline alone for the same period. Treatments lasted for 36 days thereafter. Antitumor activities were estimated by the inhibition of tumor volume, which was measured with a caliper on six different occasions over 36-day period. Each point represents mean tumor volume calculated from 5 animals per experimental group.

[3] = system: H460 (lung); assay: Colony forming ability, H460; assay type: cell-based, human; conditions: 0.2 μM antisense oligonucleotide/lipofectin, 4 hours
Method: The effect of SEQ ID NO:1 on the colony forming ability were evaluated in the following human tumor cell lines:
Tumor cells were washed in 5 ml of phosphate buffered saline, pH 7.2, prior to 0.2 μM antisense oligonucleotide/lipofectin treatment for 4 hours. The medium was removed and the cells were gently washed with 5 ml of growth medium. The cells were then cultured in growth medium for seven to ten days. Surviving colonies were visualized by methylene blue staining and colonies of 50 or more cells were scored (Choy et al., 1988 and Huang and Wright, 1994). Results are summarized from 4 to 8 trials for each tumor cell line.

[4] = cynomolgus monkey, in vivo
[5] = system: 28S rRNA, 18S rRNA, thioredoxin mRNA, β-actin mRNA, GAPDH mRNA, thioredoxin reductase mRNA, ribosomal protein S9 mRNA, RNase MRP RNA, RNase P RNA and R2 mRNA; assay: Northern blot of other cellular RNAs in A2058 human melanoma cells (specificity); assay type: cell-based; conditions: 0.2 μM, 4 hr with Lipofectin
Method: A2058 human melanoma cells, grown to subconfluency (70-80%), were treated with 0.2 μM of phosphorothioate antisense ODNs for 4 hr in the presence of cationic lipid (Lipofectin reagent, final concentration, 5 μg/ml, GIBCO BRL) and Opti-MEM (GIBCO BRL). Cells were washed once with PBS and incubated for 16 hr in α-MEM medium (GIBCO BRL) containing 10% FBS. Total RNA was prepared in TRIzol reagent (GIBCO BRL) and northern blot analysis was performed as previously described (Hurta and Wright, J. Cell. Biochem. 57: 543-56, 1995) with some modifications. RNA prepared from cells treated with lipofectin alone (Control), SEQ ID NO:1 and scrambled control analogue (SEQ ID NO:1 Scr) were subjected to electrophoresis through 1% formaldehyde agarose gels followed by transfer to nylon membrane. The blots were hybridized with ^32P-labeled probes that detect R1 mRNA, 28S rRNA, 18S rRNA, thioredoxin mRNA, […], GAPDH mRNA, thioredoxin reductase mRNA, ribosomal protein S9 mRNA, RNase MRP RNA, RNase P RNA and R2 mRNA.

[6] = system: DU145 human prostatic cancer cells; assay: DU145 prostate tumor growth in SCID mice; assay type: in vivo
Method: DU145 human prostatic cancer cells (1×10^7 cells in 100 μl of PBS) were subcutaneously injected into the right flank of 6-7 week old male SCID mice. After the size of the tumors reached an approximate volume of 50 mm^3, 13 days post tumor cell injection, SEQ ID NO:1 was administered by bolus infusion into the tail vein every other day at 10 mg/kg. Control animals received saline alone for the same period. Treatments lasted for 30 days thereafter. Antitumor activities were estimated by the inhibition of tumor volume, which was measured with a caliper on nine different occasions over 30-day period. Each point represents mean tumor volume calculated from 5 animals per experimental group.
In both experiments, DU145 human prostatic cancer cells (1×10^7 cells in 100 μl of PBS) were subcutaneously injected into the right flank of 6-7 weeks old male SCID mice. After the size of tumor reached an approximate volume of 50 mm^3, 13 (upper panel) or 11 (lower panel) days post tumor cell injection, SEQ ID NO:1 was administered by bolus infusion into the tail vein every other day at 10 mg/kg 15 times (upper panel) or 14 times (lower panel), respectively. Control animals received saline alone for the same period. Antitumor effect of SEQ ID NO:1 was further compared to that of mitoxantrone (novantrone®) alone or in combination. Mitoxantrone was administered intravenously once at the beginning of the treatments at a dose of 2 mg/kg (upper panel) or once a week for four weeks at a reduced dose of 0.8 mg/kg (lower panel). All treatments were stopped at day 42 (upper panel) or 38 (lower panel), respectively. A day after the last treatment, tumors were excised from the animals and their weights were measured.

[7] = cynomolgus monkey, in vivo; remark: listed apart in the source
[8] = rat, in vivo

## 5′-CTCTAGCGTCTTAAAGCCGA-3′ (CTCTAGCGTCTTAAAGCCGA; chemistry not given here) [SEQ ID NO:1]
[1]
  number of lung tumor nodules: significantly reduced the formation of lung colonies
[2]
  inhibition of tumor volume: strong inhibitory effects
[3]
  inhibition in colony forming ability: greater than 60%
[4]
  APTT values compared to control: significantly longer
  WBC counts: marked increase
  appetite: significant decrease in appetite noted in the majority of high dose males
  clinical signs: Treatment-related reversible clinical signs were limited to a few high dose animals
  lymphoid atrophy: minimal to moderate lymphoid atrophy
  ophthalmoscopy: Bilateral retinopathy was noted in one high dose male
  organ weights: slight increase in relative and absolute kidney weights
  red blood cell, hematocrit, and hemoglobin values: slight to moderate reductions
[4]; 50 mg/kg/day
  summary of effects: reversible signs of weakness, decreases in body weight and appetite, prolongation of APTT, anemia, thrombocytopenia, and monocytosis
[5]
  expression of other cellular RNAs: significant decrease in R1 mRNA but not other RNAs; also recorded: No effects were observed
[6]; SCID mice, 10 mg/kg i.v. every other day, 30 days, vs saline, 10 mg/kg
  inhibition of tumor volume: strong inhibitory effects
[6]; upper panel FIG. 2, SEQ ID NO:1 10 mg/kg every other day 15 times, mitoxantrone 2 mg/kg i.v. once, vs saline
  tumor weight / tumor growth: significant delay of tumor growth
[6]; upper panel FIG. 2, mitoxantrone 2 mg/kg once
  delay in tumor growth compared with mitoxantrone alone: superior to the inhibitory effects observed with mitoxantrone alone
[7]
  clinical parameters in mid and low dose animals: Transient changes
  complement split product Bb: appeared to increase
[7]; 40 mg/kg/day
  activated partial thromboplastin time (APTT): reversible increase
[8]
  elimination from plasma (profile): biphasic
  measurable in plasma post dose: up to 24 h
  plasma levels (AUC and Cmax) versus dose: increased in proportion to administered dose
[8]; iv
  time of Cmax / maximum concentration post dose: 5 min
[8]; iv, 50 mg/kg
  apparent terminal elimination phase t1/2: 4.72 to 5.80 h
  plasma clearance: 49.67-43.30 mL/kg·h
